Source: patent US10059740B2, “Integrin interaction inhibitors for the treatment of cancer” (H. LEE MOFFITT CANCER CENTER AND RESEARCH INSTITUTE, INC., priority 2010, dated 2018)
Where two headings read alike, the source gives them in different places. Blank lines part the entries; values can stand above or below the compound they belong to. Starred links: 1 amine or outer side, 2 acyl side, 3 side chain; linkers in the order of their positions; H or OH if unused. Positions of bridges follow the written chain, without caps; N, C: chain ends. Non-standard residues stand in square brackets, D forms with d. Residues, ends and D or L forms follow the SMILES beside them. No end group written: not given here. *: point of attachment. T1 = NH2CH2CH2N(SO2Me)CH2COOH, methylsulfonamido aminoethyl glycine linker; dProlinol(O-CH2CO) = O=C(COC[C@H]1CCCN1[*:1])[*:2]; N(2-Aminoethyl)Gly = O=C(CN(CCN[*:3])[*:1])[*:2]; Nle = CCCC[C@H](N)C(=O)O; Ms = CS(=O)(=O)*

Test system: H929 myeloma cells
Type: cell-based
Details: for change in activity relative to the inverso peptide L-cINTEGRIN INTERACTION INHIBITORS: alanine scan and analogs, Table 4 legend; for activity relative to linear parent peptide (linear D-HYD1): in words
Experimental: H929 cells were treated for 24 hours with varying concentrations of peptide. Cell death was measured by Topro-3 staining and FACS analysis. The IC50 values were obtained from linear regression analysis and an average value was obtained from 3 independent experiments.
Table 4 legend: Structure activity relationship in H929 myeloma cells of cyclic INTEGRIN INTERACTION INHIBITORS derivatives. The minimal bioactive core sequence of INTEGRIN INTERACTION INHIBITORS WSVVM (SEQ ID NO:85) was cyclized using 2 novel reduced amide bond beta turn promoters and KLKLK (SEQ ID NO:27) as the non-recognition sequence. H929 cells were treated with varying concentrations of the indicated peptide for 24 h. Cell viability was determined using Topro-3 staining and FACS analysis after drug treatment. IC50 values were generated from linear regressions generated from the dose response curves (n=mean of 3 independent experiments).
Using combinatorial peptide libraries and a functional binding assay, several peptides have been identified that inhibited α2β1 and α6β1 integrin mediated adhesion of prostate cancer cells to fibronectin, laminin and collagen IV.^1 They identified an all D-amino acid containing peptide referred as HYD1 ([…]) (SEQ ID NO:278) that blocks binding of epithelial prostate carcinoma cells to extracellular matrix components.^2,3 Hazlehurst and co-workers have truncated the N- and C-termini and alanine scan studies identified MVISW (SEQ ID NO:279) as the likely core region of linear D-HYD1 required for biological activity. […] The pentapeptide (KLKLK) (SEQ ID NO:27) was selected as the non-recognition strand to improve the solubility. N- to C-terminus cyclization of linear peptides was done to restrict the number of conformations available to the linear peptide which increases the affinity of the cyclized peptide for its target when the constraint stabilizes the bound conformation of the peptide. We synthesized cyclic D-HYD1 using a novel methylsulfonamide aminoethyl glycine linker T1 that connects two anti-parallel strands. […] The inverso- (peptide 2, Table 4) and partially modified retro-inverso (PMRI) (peptide 10) pentapeptide sequences of the recognition strand of cyclic III (Integrin Interaction Inhibitors also known as cyclic L-HYD1) peptide analogs were subsequently investigated for their potential to block beta integrin mediated cell adhesion. The retro-inverso design of biologically active peptides is a well-known strategy to design all D-amino acid peptides from potentially bioactive all L-peptide sequences with increased stability^4-7.
A colony forming assay was used to compare induced cell death in H929 multiple myeloma cells. Cells were treated with integrin interaction inhibitors, shown in FIG. 5 and Table 4, and cell death was measured following 24 hour peptide treatment by TOPRO-3 staining and FACS analysis.

[1] = cyclic III peptide analogs, Table 8, H929 cells, TOPRO 3, read-out: IC50

IC50 (24 h): 19 µM
Compound: CCCC[C@@H]1NC(=O)CN(S(C)(=O)=O)CCNC(=O)[C@H](CCC(N)=O)NC(=O)[C@H](CC(C)C)NC(=O)[C@H](CCCCN)NC(=O)[C@H](CC(C)C)NC(=O)[C@H](CCCCN)NC(=O)COC[C@H]2CCCN2C(=O)[C@H](Cc2c[nH]c3ccccc23)NC(=O)[C@H](C)NC(=O)[C@H](C(C)C)NC(=O)[C@H](C(C)C)NC1=O [Peptide 19, KLKLQT1N*VVAWT3] (Ms-[N(2-Aminoethyl)Gly][Nle]VVAW[dProlinol(O-CH2CO)]KLKLQ; lactam 1-C)

IC50 (24 h): 25 µM
Compound: CCCC[C@@H]1NC(=O)CN(S(C)(=O)=O)CCNC(=O)[C@H](CCCCN)NC(=O)[C@H](CCC(N)=O)NC(=O)[C@H](CCCCN)NC(=O)[C@H](CC(C)C)NC(=O)[C@H](CCCCN)NC(=O)COC[C@H]2CCCN2C(=O)[C@H](Cc2c[nH]c3ccccc23)NC(=O)[C@H](C)NC(=O)[C@H](C(C)C)NC(=O)[C@H](C(C)C)NC1=O [Peptide 21, KLKQKT1N*VVAWT3] (Ms-[N(2-Aminoethyl)Gly][Nle]VVAW[dProlinol(O-CH2CO)]KLKQK; lactam 1-C)

Compound: CSCC[C@@H]1NC(=O)CN(S(C)(=O)=O)CCNC(=O)[C@H](CCCCN)NC(=O)[C@H](CC(C)C)NC(=O)[C@H](CCCCN)NC(=O)[C@H](CC(C)C)NC(=O)[C@H](CCCCN)NC(=O)CN(S(C)(=O)=O)CCNC(=O)[C@H](Cc2c[nH]c3ccccc23)NC(=O)[C@H](C)NC(=O)[C@H](C(C)C)NC(=O)[C@H](C(C)C)NC1=O [III 3]
change in activity relative to the inverso peptide L-cINTEGRIN INTERACTION INHIBITORS (H929 cells): increase in activity

Compound: CC(C)C[C@@H]1NC(=O)[C@H](CCCCN)NC(=O)CN(S(C)(=O)=O)CCNC(=O)[C@H](Cc2c[nH]c3ccccc23)NC(=O)[C@H](CO)NC(=O)[C@H](C(C)C)NC(=O)[C@H](C(C)C)NC(=O)[C@H](C)NC(=O)CN(S(C)(=O)=O)CCNC(=O)[C@H](CCCCN)NC(=O)[C@H](CC(C)C)NC(=O)[C@H](CCCCN)NC1=O [III 6]
change in activity relative to the inverso peptide L-cINTEGRIN INTERACTION INHIBITORS (H929 cells): decrease in activity

Compound: CSCC[C@H]1NC(=O)CN(S(C)(=O)=O)CCNC(=O)[C@@H](CCCCN)NC(=O)[C@@H](CC(C)C)NC(=O)[C@@H](CCCCN)NC(=O)[C@@H](CC(C)C)NC(=O)[C@@H](CCCCN)NC(=O)CN(S(C)(=O)=O)CCNC(=O)[C@@H](Cc2c[nH]c3ccccc23)NC(=O)[C@@H](CO)NC(=O)[C@@H](C(C)C)NC(=O)[C@@H](C(C)C)NC1=O [cyclic D-HYD1]
activity relative to linear parent peptide (linear D-HYD1) (H929 cells): twice as active | activity relative to linear parent peptide (linear D-HYD1) (H929 cells, listed as c-D-HYD1): about twice as active

Compound: CSCC[C@@H]1NC(=O)CN(S(C)(=O)=O)CCNC(=O)[C@H](CCCCN)NC(=O)[C@H](CC(C)C)NC(=O)[C@H](CCCCN)NC(=O)[C@H](CC(C)C)NC(=O)[C@H](CCCCN)NC(=O)CN(S(C)(=O)=O)CCNC(=O)[C@H](Cc2c[nH]c3ccccc23)NC(=O)[C@H](CO)NC(=O)[C@H](C(C)C)NC(=O)[C@H](C(C)C)NC1=O [III 1]
fold more potent than the parent linear HYD1 peptide (H929 cells): 2.5 fold

Compound: CCCC[C@@H]1NC(=O)[C@H](C)NC(=O)[C@H](C(C)C)NC(=O)[C@H](C)NC(=O)[C@H](Cc2c[nH]c3ccccc23)NC(=O)CN(S(C)(=O)=O)CCNC(=O)[C@H](CCCCN)NC(=O)[C@H](CC(C)C)NC(=O)[C@H](CCCCN)NC(=O)[C@H](CC(C)C)NC(=O)[C@H](CCCCN)NC(=O)CN(S(C)(=O)=O)CCNC1=O [Peptide 13, KLKLKT1WAVAN*T1]
IC50 [1]: 26 µM

IC50 (24 h): 13 µM
Compound: CCCC[C@@H]1NC(=O)CN(S(C)(=O)=O)CCNC(=O)[C@H](CCCCN)NC(=O)[C@H](CC(C)C)NC(=O)[C@H](CCC(N)=O)NC(=O)[C@H](CC(C)C)NC(=O)[C@H](CCCCN)NC(=O)COC[C@H]2CCCN2C(=O)[C@H](Cc2c[nH]c3ccccc23)NC(=O)[C@H](C)NC(=O)[C@H](C(C)C)NC(=O)[C@H](C(C)C)NC1=O [Peptide 17, KLKQKT1N*VVAWT3] (Ms-[N(2-Aminoethyl)Gly][Nle]VVAW[dProlinol(O-CH2CO)]KLQLK; lactam 1-C)

Compound: L-HYD1: the inverso (L-HYD1) cyclic compound (cyclo(KLKLKMVVSW)-T1; not fully specified (residue 5))
potency relative to cyclic D-HYD1 (H929 cells): 2 fold

Compound: CCCC[C@@H]1NC(=O)CN(S(C)(=O)=O)CCNC(=O)[C@H](CCCCN)NC(=O)[C@H](CC(C)C)NC(=O)[C@H](CCCCN)NC(=O)[C@H](CC(C)C)NC(=O)[C@H](CCCCN)NC(=O)COC[C@H]2CCCN2C(=O)[C@H](Cc2c[nH]c3ccccc23)NC(=O)[C@H](C)NC(=O)[C@H]([C@@H](C)CC)NC(=O)[C@H](C(C)C)NC1=O [Peptide 25, KLKLKT1N*VIAWT3] (Ms-[N(2-Aminoethyl)Gly][Nle]VIAW[dProlinol(O-CH2CO)]KLKLK; lactam 1-C)
IC50 [1]: 10 µM

IC50 (24 h): 12 µM
Compound: CCCC[C@@H]1NC(=O)[C@H](C(C)C)NC(=O)[C@H](C(C)C)NC(=O)[C@H](C)NC(=O)[C@H](Cc2c[nH]c3ccccc23)NC(=O)CN(S(C)(=O)=O)CCNC(=O)[C@H](CCCCN)NC(=O)[C@H](CC(C)C)NC(=O)[C@H](CCCCN)NC(=O)[C@H](CC(C)C)NC(=O)[C@H](CCCCN)NC(=O)CN(S(C)(=O)=O)CCNC1=O [Peptide 11, KLKLKT1WAVVN*T1]

IC50 (24 h): 41 µM
Compound: CCCC[C@@H]1NC(=O)[C@H](C(C)C)NC(=O)[C@H](C)NC(=O)[C@H](C)NC(=O)[C@H](Cc2c[nH]c3ccccc23)NC(=O)CN(S(C)(=O)=O)CCNC(=O)[C@H](CCCCN)NC(=O)[C@H](CC(C)C)NC(=O)[C@H](CCCCN)NC(=O)[C@H](CC(C)C)NC(=O)[C@H](CCCCN)NC(=O)CN(S(C)(=O)=O)CCNC1=O [Peptide 14, KLKLKT1WAAVN*T1]

IC50 (24 h): 6.7 µM
Compound: CSCC[C@@H]1NC(=O)[C@H](C(C)C)NC(=O)[C@H](C(C)C)NC(=O)[C@H](CO)NC(=O)[C@H](Cc2c[nH]c3ccccc23)NC(=O)CN(S(C)(=O)=O)CCNC(=O)[C@H](CCCCN)NC(=O)[C@H](CC(C)C)NC(=O)[C@H](CCCCN)NC(=O)[C@H](CC(C)C)NC(=O)[C@H](CCCCN)NC(=O)CN(S(C)(=O)=O)CCNC1=O [III 8]
change in activity relative to the inverso peptide L-cINTEGRIN INTERACTION INHIBITORS (H929 cells): increases in activity

IC50 (24 h): 3 µM
Compound: CCCC[C@@H]1NC(=O)[C@H](C(C)C)NC(=O)[C@H](C(C)C)NC(=O)[C@H](C)NC(=O)[C@H](C)NC(=O)CN(S(C)(=O)=O)CCNC(=O)[C@H](CCCCN)NC(=O)[C@H](CC(C)C)NC(=O)[C@H](CCCCN)NC(=O)[C@H](CC(C)C)NC(=O)[C@H](CCCCN)NC(=O)CN(S(C)(=O)=O)CCNC1=O [Peptide 15, KLKLKT1AAVVN*T1]
bioactivity of cyclic III peptide analogs, in words (SAR discussion of Table 8): unexpected improvement in bioactivity

IC50 (24 h): 18 µM
Compound: CCCC[C@@H]1NC(=O)CN(S(C)(=O)=O)CCNC(=O)[C@H](CCCCN)NC(=O)[C@H](CC(C)C)NC(=O)[C@H](CCCCN)NC(=O)[C@H](CCC(N)=O)NC(=O)[C@H](CCCCN)NC(=O)COC[C@H]2CCCN2C(=O)[C@H](Cc2c[nH]c3ccccc23)NC(=O)[C@H](C)NC(=O)[C@H](C(C)C)NC(=O)[C@H](C(C)C)NC1=O [Peptide 20, KQKLKT1N*VVAWT3] (Ms-[N(2-Aminoethyl)Gly][Nle]VVAW[dProlinol(O-CH2CO)]KQKLK; lactam 1-C)

Compound: CCCC[C@@H]1NC(=O)CN(S(C)(=O)=O)CCNC(=O)[C@H](CCCCN)NC(=O)[C@H](CC(C)C)NC(=O)[C@H](CCCCN)NC(=O)[C@H](CC(C)C)NC(=O)[C@H](CCCCN)NC(=O)COC[C@H]2CCCN2C(=O)[C@H](Cc2c[nH]c3ccccc23)NC(=O)[C@H](C)NC(=O)[C@H](CC(C)C)NC(=O)[C@H](C(C)C)NC1=O [Peptide 24, KLKLKT1N*VLAWT3] (Ms-[N(2-Aminoethyl)Gly][Nle]VLAW[dProlinol(O-CH2CO)]KLKLK; lactam 1-C)
IC50 [1]: 10 µM

Compound: CCCC[C@@H]1NC(=O)CN(S(C)(=O)=O)CCNC(=O)[C@H](CCCCN)NC(=O)[C@H](CC(C)C)NC(=O)[C@H](CCCCN)NC(=O)[C@H](CC(C)C)NC(=O)[C@H](CCCCN)NC(=O)CN(S(C)(=O)=O)CCNC(=O)[C@H](Cc2c[nH]c3ccccc23)NC(=O)[C@H](CO)NC(=O)[C@H](C(C)C)NC(=O)[C@H](C(C)C)NC1=O [III 7]
change in activity relative to the inverso peptide L-cINTEGRIN INTERACTION INHIBITORS (H929 cells): increase in activity

Compound: CSCC[C@@H]1NC(=O)CN(S(C)(=O)=O)CCNC(=O)[C@H](CCCCN)NC(=O)[C@H](CC(C)C)NC(=O)[C@H](CCCCN)NC(=O)[C@H](CC(C)C)NC(=O)[C@H](CCCCN)NC(=O)CN(S(C)(=O)=O)CCNC(=O)[C@H](C)NC(=O)[C@H](CO)NC(=O)[C@H](C(C)C)NC(=O)[C@H](C(C)C)NC1=O [III 2]
change in activity relative to the inverso peptide L-cINTEGRIN INTERACTION INHIBITORS (H929 cells): decrease in activity

Compound: MVVAW: cyclic compound with recognition strand MVVAW (SEQ ID NO:35), S replaced by A (also: recognition strand of a larger cyclic compound)
fold more potent than the parent linear HYD1 peptide (H929 cells): approximately 10 fold
